Here are results for two molecules from paper PMC8171317, “Total synthesis, isolation, surfactant properties, and biological evaluation of ananatosides and related macrodilactone-containing rhamnolipids” (Chemical Science, 2021).

Marks after values point to notes of the source that are not given here.

In one series the test system is Arabidopsis petiole. The series is described as follows: Extracellular ROS production, luminol chemiluminescence. In kind it is cell-based, Arabidopsis thaliana. As to conditions: 100 μM. On the procedure: The only exception to this general trend was compound 5β. […]
ananatoside A (1) ananatoside B (2)
Figure S8. Extracellular ROS production following treatment of Arabidopsis petiole with […]
ananatoside A (1) or ananatoside B (2). Production of reactive oxygen species (ROS) was measured […]
in Arabidopsis petiole following treatment at 100 µM with ananatoside A (1) and ananatoside B […]
(2). Methanol (0.5%) was used as a control. ROS production was measured using the […]
chemiluminescence of luminol and photon counts were expressed as relative luminescence units […]
(RLUs). Data are mean ± SEM (n = 6). Experiments were realized three times with similar results.
(also on this page, place not known: S 8. ( 1) Luminescence (RLU) Luminescence (RLU)) […]
(§1) ranging between 200 µM and 1.56 µM. Triton X-100 was used as a positive hemolysis control.
The plate was then incubated at 37 °C with agitation at 150 rpm for 1 h and centrifuged at 1500 × g for 5 min. The supernatant was transferred in an empty plate and absorbance was measured at 540 nm using a Cytation3 microplate reader (Biotek). HC50 was calculated in comparison with the positive control. The experiment was performed in triplicate and repeated three times.
Plant Material and Growth Conditions. […]
Reactive Oxygen Species (ROS) Production. […] Luminescence (relative light units, RLU) was measured every 4

For the next series, the system named is sheep blood erythrocytes. The series is described as follows: Hemolytic activity. As to conditions: sheep blood erythrocytes; 1 h, 37 °C; max tested 200 μM. It counts as cell-based. On the procedure:
Owing to their surfactant properties, glycolipids can break the membrane of red blood cells causing hemolytic activity.[18] To understand if the cytotoxicity of macrolactones 1, 4, 5β, and 6β was due to their surface tension activity, we evaluated the hemolytic potential of synthetic glycolipids 1–6 against sheep erythrocytes (Table 5). […] The non-cytotoxic rhamnolipid 3 was also found to exert a weak hemolytic activity (HC50 = 65 ± 6 μM). […]
Hemolytic Activity. The hemolytic activity of the synthetic surfactants was evaluated as previously described with small modifications.10 Defibrinated sheep blood (Oxoid) was centri fuged at 1000 × g for 5 min. The pellet containing erythrocytes was washed once and suspended in 1X PBS to obtain a 1% erythrocytes suspension. All samples were suspended in DMSO/PBS (5:1 v/v) and serially diluted in a 96 -well plate to obtain a range of co ncentrations from 1 mM to 7.8 µM.
The erythrocytes suspension (160 µL) was added to 40 µL of samples to obtain final concentrations […]
as §1
The plate was then incubated at 37 °C with agitation at 150 rpm for 1 h and centrifuged at 1500 × g for 5 min. The supernatant was transferred in an empty plate and absorbance was measured at 540 nm using a Cytation3 microplate reader (Biotek). HC50 was calculated in comparison with the positive control. The experiment was performed in triplicate and repeated three times. […]

Series [1] in a line: Surface tension and CMC, Fisher tensiometer, du Noüy ring method. In kind it is physicochemical. The arrangement: γ CMC (surface tension at CMC): unit not given here. As to conditions: pH 7.0; synthetic samples. The protocol:
Biosurfactants are molecules that can associate with each other leading to the formation of micelles. They can also interact with surfaces between phases of different polarity such as the air/water or oil/water interface.[77] To gain quantitative insights into the surface-active properties of microbial glycolipids, the surface tensions at CMC (γCMC) of ananatoside A (1) and ananatoside B (2) were measured using a Fisher tensiometer by means of the du Noüy ring method. The CMC, referring to the concentration of surfactant at which micelles start to form, was determined from a plot of surface tension again each concentration. […] Consequently, the surface tension measurements were performed quickly to avoid the precipitation of ananatoside A (1) into the aqueous medium.

The next series deals with tomato leaf disks. The experiment in a line: Extracellular ROS production, luminol chemiluminescence. In kind it is cell-based, Solanum lycopersicum. As to conditions: 100 μM, monitored over 720 min. An excerpt:
Bacterial rhamnolipids, such as compound 3, trigger the plant immune system, which can ultimately lead to plant protection against diseases caused by fungal and bacterial pathogens.[23] As ananatoside A (1) and ananatoside B (2) share structural similarities with rhamnolipid 3 and because they have been isolated from P. ananatis cultures, an emerging plant pathogen causing important agricultural damage worldwide,[81] we wanted to investigate whether these bacterial glycolipids, along with our unprecedented series of synthetic rhamnolactones, could be perceived by the plant immune system. We relied on measuring the extracellular content of reactive oxygen species (ROS) produced by tomato plants (Solanum lycopersicum) following treatment with the synthetic compounds, as an early and important marker of plant immunity.[20,22,82] Tomato leaves were challenged with synthetic glycolipids 1–6 at concentrations of 100 μM and the production of ROS was monitored over a 720 min time frame (Fig. 5).
Fig. 5 Extracellular reactive oxygen species (ROS) production following treatment of tomato leaf disks with ananatoside A (1), ananatoside B (2), RhaC10C10 (3), and related macrodilactone-containing rhamnolipids (4–6). Production of ROS was measured in tomato leaf disks following treatment at 100 μM with synthetic glycolipids (1–6). MeOH (0.5%) was used as a control. ROS production was measured using the chemiluminescence of luminol and photon counts were expressed as relative luminescence units (RLUs). Data are mean ± SEM (n = 6). Experiments were independently realized three times with similar results. […]
Plant Material and Growth Conditions. Tomato plants (Solanum lycopersicum L var. Ailsa craig, Scotland) were grown on soil in growth chamber with white fluorescent light [200 μmol•(m−2 s−1)], under 16 h/8 h light/dark regime, 60% relative humidity , and a temperature of 24 /20 °C during four weeks prior treatment. Arabidopsis thaliana plants (ecotype Col -0) were grown on soil in growth chambers with white fluorescent light (150 μmol m−2 s−1), under 12 h/12 h light/dark regime, 60% relative humidity, and a temperature of 20/20 °C during six weeks prior treatment.
Reactive Oxygen Species (ROS) Production. ROS assays were performed on four-week old tomato plants or six-week old Arabidopsis plants. Briefly, tomato leaf disks of 6 mm diameter or Arabidopsis petiole sections of 5 mm long were cut and placed in a 96-well plate (Optiplate TM-96 white, PerkinElmer) containing 150 µL of distilled H2O and then incubated at rt for 24 h to reduce the wounding response.11 The elicitation solution containing 0.2 µg•mL−1 luminol (A4685-5 g, Sigma), […] (P6782, Sigma) and the tested glycolipids (1, 2, 3, 4, 5α, 5β, 6α or 6β) at 100 μM was prepared. Methanol (0.5%) was used as negative control. Prior elicitation, the incubating distilled H2O was carefully removed from each well, avoiding any tissue damage or desiccation. Then, the elicitation solution (150 µL) was quickly added to each well containing a leaf disk or a petiole. Luminescence (relative light units, RLU) was measured every 4

A short description of series [2]: Emulsifying activity against hydrocarbon contaminants. In kind it is physicochemical. The following applies: cyclohexane and kerosene. On the procedure:
Therefore, the emulsifying properties of microbial biosurfactants 1–3 were evaluated against light as well as heavy hydrocarbon contaminants such as cyclohexane and kerosene, respectively (see Fig. S7 ^†).

`CCCCCCC[C@@H]1CC(=O)OC[C@H]2O[C@@H](O[C@H](CCCCCCC)CC(=O)O1)[C@H](O)[C@@H](O)[C@@H]2O` [Compound 1, ananatoside A]: the “Extracellular ROS production (perception by plants)” value in the series with Arabidopsis petiole is “perceived by plants”. The “Hemolysis (HC50 in μM) Erythrocytes” value with sheep blood erythrocytes is 12.3 ± 0.3 µM. For the same molecule, in series [1], the “CMC (critical micelle concentration)” value was determined as 43 ± 2 µM and the “γ CMC (surface tension at CMC)” value was 37 ± 1. Besides, the “Extracellular ROS production” value with tomato leaf disks is “not”. For the same molecule, in series [2], the Emulsifying activity result is on record as “unable to form any emulsion”.

On to `CCCCCCC[C@H](CC(=O)O)OC(=O)C[C@@H](CCCCCCC)O[C@@H]1O[C@H](CO)[C@@H](O)[C@H](O)[C@H]1O` [Compound 2, ananatoside B], for which the “Extracellular ROS production (perception by plants)” value with Arabidopsis petiole was “perceived by plants”. Also, the “Hemolysis (HC50 in μM) Erythrocytes” value with sheep blood erythrocytes was >200 ^d μM. Besides, in series [1], the “CMC (critical micelle concentration)” value was found to be 63 ± 2 µM and the “γ CMC (surface tension at CMC)” value was 28 ± 1. In the series on tomato leaf disks, the “Extracellular ROS production” value is on record as “less strong in amplitude, a similar pattern of ROS production”. Moreover, the Emulsifying activity result in series [2] is “equally able to generate emulsions with cyclohexane and kerosene”.
